Consider 1 molecule from ChEMBL document CHEMBL1125472, “5-lipoxygenase: properties, pharmacology, and the quinolinyl(bridged)aryl class of inhibitors” (J Med Chem, 1992).

The species entered for experiment [1] is Mus musculus. Description: Compound was tested for tetradecanoylphorbol acetate (TPA) induced inflammation at concentration of 1 mg/ear in mouse. The class given is functional.
Experiment [2] deals with T1, Polyunsaturated fatty acid 5-lipoxygenase (Rattus norvegicus) (UniProt P12527).
T1 sequence (whole entry): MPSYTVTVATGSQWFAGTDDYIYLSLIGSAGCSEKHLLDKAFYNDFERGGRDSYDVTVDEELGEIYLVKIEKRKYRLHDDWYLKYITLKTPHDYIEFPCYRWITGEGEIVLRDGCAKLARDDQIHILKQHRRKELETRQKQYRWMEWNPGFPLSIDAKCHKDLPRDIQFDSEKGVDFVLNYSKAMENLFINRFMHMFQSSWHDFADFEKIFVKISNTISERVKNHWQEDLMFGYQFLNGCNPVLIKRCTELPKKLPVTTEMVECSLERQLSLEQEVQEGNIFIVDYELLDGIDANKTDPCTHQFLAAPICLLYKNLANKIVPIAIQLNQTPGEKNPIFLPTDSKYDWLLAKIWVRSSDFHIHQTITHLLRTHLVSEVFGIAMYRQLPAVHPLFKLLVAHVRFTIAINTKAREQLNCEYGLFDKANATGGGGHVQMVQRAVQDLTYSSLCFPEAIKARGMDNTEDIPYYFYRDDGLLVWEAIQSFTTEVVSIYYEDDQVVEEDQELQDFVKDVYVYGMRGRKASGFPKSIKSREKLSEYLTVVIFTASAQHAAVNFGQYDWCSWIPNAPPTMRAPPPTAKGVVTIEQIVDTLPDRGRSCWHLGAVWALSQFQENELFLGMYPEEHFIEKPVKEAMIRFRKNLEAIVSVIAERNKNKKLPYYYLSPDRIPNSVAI
Briefly: The compound was tested for inhibition of 5-lipoxygenase in rat RBL-2H3 cells. Format: cell-based.

For experiment [3], the species on record is Cavia porcellus. Description: The effective dose which inhibits UVB-induced guinea pig skin erythema. The class given is functional.
The target in experiment [4] is T1, Polyunsaturated fatty acid 5-lipoxygenase (Rattus norvegicus). Description: The compound was tested for inhibition of 5-lipoxygenase translocation in SAR in rat RBL-2H3 cells. The class given is cell-based.
Experiment [5] concerns the target T2, Polyunsaturated fatty acid 5-lipoxygenase (Rattus norvegicus, UniProt P12527).
T2 sequence (P12527 whole entry): T1 sequence (whole entry)
Briefly: The compound was tested for inhibitory activity against 5-lipoxygenase in rat polymorphonuclear leukocytes[PMNS]. The class given is cell-based.

For experiment [6], the species on record is Mus musculus. Description: The effective dose which inhibits […](AA) and tetradecanoylphorbol acetate(TPA) induced inflammation. The class given is functional.
The target of experiment [7] is T3, Prostaglandin G/H synthase (cyclooxygenase) (Mus musculus, UniProt P22437+Q05769).
T3 sequence (P22437 whole entry): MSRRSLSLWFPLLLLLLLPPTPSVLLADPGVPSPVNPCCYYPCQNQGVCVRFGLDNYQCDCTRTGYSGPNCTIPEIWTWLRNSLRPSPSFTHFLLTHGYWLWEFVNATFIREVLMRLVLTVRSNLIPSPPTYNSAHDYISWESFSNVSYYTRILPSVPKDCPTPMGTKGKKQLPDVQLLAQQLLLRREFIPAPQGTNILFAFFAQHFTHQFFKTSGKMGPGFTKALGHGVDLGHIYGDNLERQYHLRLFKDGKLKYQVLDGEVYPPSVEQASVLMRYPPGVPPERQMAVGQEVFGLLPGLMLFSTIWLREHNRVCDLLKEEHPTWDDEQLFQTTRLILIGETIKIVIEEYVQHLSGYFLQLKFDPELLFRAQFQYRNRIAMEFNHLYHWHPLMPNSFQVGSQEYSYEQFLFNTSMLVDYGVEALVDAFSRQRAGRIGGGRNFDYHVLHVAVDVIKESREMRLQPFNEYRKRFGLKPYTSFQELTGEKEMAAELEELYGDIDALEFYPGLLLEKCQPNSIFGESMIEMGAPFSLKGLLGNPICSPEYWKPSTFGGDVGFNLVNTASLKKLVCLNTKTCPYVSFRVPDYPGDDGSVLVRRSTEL
T3 sequence (Q05769 whole entry): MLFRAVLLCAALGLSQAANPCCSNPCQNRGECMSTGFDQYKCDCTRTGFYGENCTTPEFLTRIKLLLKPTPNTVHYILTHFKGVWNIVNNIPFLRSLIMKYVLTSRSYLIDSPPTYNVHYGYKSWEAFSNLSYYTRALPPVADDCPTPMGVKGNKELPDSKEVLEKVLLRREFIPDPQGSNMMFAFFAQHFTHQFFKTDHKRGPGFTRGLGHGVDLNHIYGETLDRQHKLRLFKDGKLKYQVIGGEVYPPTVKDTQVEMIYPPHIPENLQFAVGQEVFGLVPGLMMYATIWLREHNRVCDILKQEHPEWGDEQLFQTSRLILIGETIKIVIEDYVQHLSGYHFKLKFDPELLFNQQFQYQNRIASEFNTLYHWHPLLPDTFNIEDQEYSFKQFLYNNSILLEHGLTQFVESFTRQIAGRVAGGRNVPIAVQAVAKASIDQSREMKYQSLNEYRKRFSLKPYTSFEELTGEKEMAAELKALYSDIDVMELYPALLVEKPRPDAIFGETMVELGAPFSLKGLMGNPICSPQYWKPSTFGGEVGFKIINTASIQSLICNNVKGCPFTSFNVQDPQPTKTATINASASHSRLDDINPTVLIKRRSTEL
Briefly: The compound was tested for inhibitory activity against cyclooxygenase in mouse macrophages. The class given is protein assay.

The species named for experiment [8] is Mus musculus. Briefly: The effective dose which inhibits […] induced contact hypersensitivity in mouse ears. Format: functional.
Experiment [9] has as its system RBL-2H3. Description: The compound was tested for inhibition LTC4 synthesis in RBL-2H3 Cells. Format: functional, Rattus norvegicus.

One may read the IC50 as the concentration that inhibits the measured activity by half. On to `c1ccc2nc(COc3cccc4ccccc34)ccc2c1`, for which the Inhibition in experiment [1] was 40%; in [2], greater than 10 µM; in experiment [4] it was 500 nM; in experiment [9], 450 nM. The ED50 was determined as 0.25 mg/spot in experiment [3], 0.3 mg ear-1 in experiment [6] and 0.4 mg ear-1 in experiment [8]. The concentration for half-maximal inhibition (IC50) stood at 400 nM in experiment [5] and 44000 nM in experiment [7].
